# Results: paper PMC3693772, “Protein expression, biochemical pharmacology of signal transduction, and relation to intraocular pressure modulation by bradykinin B2 receptors in ciliary muscle” (Molecular Vision, 2013)
# Where two headings read alike, the source gives them in different places.
# What was measured:
# cynomolgus monkey eyes = settings: cabergoline 50 µg topical, ocular hypertensive eyes, nine monkeys, ref Thirty ([30]), cited from earlier work
# Source text: Table 4 Effects of topical ocular bradykinin on IOP of Cynomolgus monkey eyes | column: Monkey IOP changes after topical ocular dosing / IOP (mmHg); Monkey IOP changes after topical ocular dosing / IOP change (% of control)
# CHO-B2 cells [1] = type: cell-based, Chinese hamster ovary cells, human cloned B2 receptor; settings: 1 h at 37 °C; enzyme immunoassay; mean ± SEM, 3 to 6 experiments; read-out: PGE2 production in CHO-B2 cells (EC50)
# h-CM cells [2] = type: cell-based, human; settings: 1 h at 37 °C; enzyme immunoassay; mean ± SEM, 3 to 6 experiments; read-out: PGF2α production in h-CM cells (EC50)
# h-CM cells [3] = type: cell-based, human; settings: 1 h at 37 °C; enzyme immunoassay; mean ± SEM, 3 to 6 experiments; read-out: PGE2 production in h-CM cells (EC50)
# [4] = system: CHO-B2 cells (human cloned B2 receptor); type: cell-based, Chinese hamster ovary cells; settings: for EC50: 1 h at 37 °C, enzyme immunoassay, mean ± SEM, 3 to 6 experiments, read-out: Total PGs production in CHO-B2 cells (EC50); for PG production/release by compound alone, CHO-B2 cells: compound on its own
# CHO-B2 cells [5] = type: cell-based, Chinese hamster ovary cells, human cloned B2 receptor; settings: 1 h at 37 °C; enzyme immunoassay; mean ± SEM, 3 to 6 experiments; read-out: PGF2α production in CHO-B2 cells (EC50)
# primary h-CM cells = type: cell-based, human; settings: for EC50: 1 h at 37 °C, enzyme immunoassay, mean ± SEM, 3 to 6 experiments, read-out: Total PGs production in h-CM cells (EC50)
# [6] = system: B2-receptor, primary h-CM cells; type: cell-based, human
# Method: Functional assay measuring [Ca^2+]i mobilization in cultured human ciliary muscle cells
# Accordingly, we isolated h-CM cells and studied BK-induced [Ca^2+]i mobilization in these cells using the Fluorescence Imaging Plate Reader (FLIPR; Molecular Devices, Menlo Park, CA) instrument as previously described. Low passage h-CM cells were seeded at a density of about 20,000 cells/well in a black-wall, 96-well tissue culture plates and grown for 2 days. On the day of the experiment, one vial of FLIPR Calcium Assay Kit dye (Molecular Devices) was resuspended in 50 ml of a FLIPR buffer consisting of Hank’s Balanced Salt Solution (HBSS), 20 mM HEPES, and 2.5 mM probenecid, pH 7.4. Cells were loaded with the calcium-sensitive dye (proprietary to Molecular Devices) by adding an equal volume (50 µl) to each well of the 96-well plate and incubated with dye for 1 h at 23 °C. Then the test compound plate and the cell plate were placed in the FLIPR instrument, and an aliquot (25 μl) of the BK solution (positive control) or the test compound was added to the existing 100 μl dye-loaded cells at a dispensing speed of 50 μl/sec. Fluorescence data were collected in real time over a period of time. Responses were measured as peak fluorescence intensity minus basal and where appropriate are expressed as a percentage of a maximum BK-induced response [Emax %]. When antagonist studies were performed, the latter were incubated with the cells for 15 min before BK was added. When the effects of various cellular signaling inhibitors/treatments were investigated, they were added to the cells 5 min before BK was added. The potencies (EC50 or IC50 values) of agonists and antagonists were determined from concentration-response curves using a sigmoidal-fit, iterative algorithm of a computer program designed to automatically fit the raw data (ActivityBase, IDBS, Surrey, UK). […] Concentration-response curves and other plots for the manuscript were constructed using Origin® software package (Microcal® Software Inc., Northampton, MA).
# Figure 3 Concentration-dependent effect of bradykinin (BK) on mobilization of [Ca^2+]i in normal, primary h-CM cells. Fluorescent dye-loaded h-CM cells were exposed to different concentrations of BK and the changes in relative fluorescence units (RFUs), indicating changes in levels of [Ca^2+]i, monitored over time (Figure 3A). The peak responses to various BK concentrations were then used to construct the concentration-response curves. Other BK-related peptides were tested in the same manner and their concentration-response curves plotted (e.g., data from a representative experiment; Figure 3B).
# CHO-B2 cells [7] = settings: read-out: PGD2 production in CHO-B2 cells (EC50), 1 h at 37 °C, enzyme immunoassay
# Method: Measurement of prostaglandins in human ciliary muscle and Chinese hamster ovary cells expressing B2 receptors
# This involved stimulating h-CM cells and CHO-B2 cells with various concentrations of test peptides and measuring the release of various PGs in the extracellular medium. The concentration-dependent effects of these peptides on total PGs, and specifically PGE2, PGF2α, and PGD2 release, were studied. Cells were grown as a monolayer in a 24-well plate (precoated with fibronectin) to confluence and subsequently serum-starved overnight before the experiment. On the day of the experiment, just before the drug was added, the wells were aspirated completely, and 990 µl basal medium and 10 µl 100× series of concentrations of the different peptide agonists were added to achieve the desired final concentrations of each compound (e.g., 0.1 nM to 10 µM). […] At the end of the incubation period, the cellular supernatants were collected and stored at −80 °C or used immediately to determine the PG content. Cell supernatants were tested for total PG levels and sub-species of PGs (PGE2, PGF2α, and PGD2) using specific competitive enzyme immunoassays (Cayman Chemical Co., Ann Arbor, MI) as directed in the manufacturer’s recommended protocols using the supplied standards and reagents. The limits of detection for various PGs were as follows: total PGs=29 pg/ml; PGE2=15 pg/ml; PGF2α=9 pg/ml; PGD2=200 pg/ml.
# primary h-TM cells = type: cell-based, human; settings: preliminary data, values rounded-off, read-out: Agonist potency at stimulating [Ca^2+]i mobilization in primary h-TM cells (EC50)
compound,measurement,setting,value
"C=CCN1C[C@H](C(=O)N(CCCN(C)C)C(=O)NCC)C[C@@H]2c3cccc4[nH]cc(c34)C[C@H]21 [Cabergoline, cabergoline]",IOP,cynomolgus monkey eyes; 0 h,34.7±3.0 mmHg
same,IOP change (% of control),cynomolgus monkey eyes; 0 h,0%
same,IOP change (% of control),cynomolgus monkey eyes; 1 h,-16.0%
same,IOP change (% of control),cynomolgus monkey eyes; 3 h,-30.4%
same,IOP change (% of control),cynomolgus monkey eyes; 7 h,-28.8%
same,IOP change (% of control),cynomolgus monkey eyes; 24 h,-27.3%
CCCC[P+](CCCC)(CCCC)Cc1ccc(NC(=O)[C@H](Cc2ccc3ccccc3c2)NC(=NC2CCCCC2)NC2CCCCC2)cc1.[Cl-] [(S)-WIN-64338],EC50,CHO-B2 cells [1],> 10 nM
same,EC50,h-CM cells [2],> 10000 nM
same,EC50,h-CM cells [3],> 10000 nM
same,EC50,[4],> 10 nM
same,"Effect on BK-induced total PGs production, CHO-B2 cells",[4],blocked
same,"Effect on BK-induced total PGs production, CHO-B2 cells",[4]; listed as WIN-64338,potent antagonism
same,"PG production/release by compound alone, CHO-B2 cells",[4],failed to influence PG production
same,"PG production/release by compound alone, CHO-B2 cells",[4]; listed as WIN-64338,did not induce PGs release
same,EC50,CHO-B2 cells [5],> 10 nM
same,EC50,primary h-CM cells,> 10000 nM
same,"PG production/release by compound alone, h-CM cells","primary h-CM cells; compound on its own, listed as WIN-64338",did not induce PGs release
same,"Effect on BK-induced total PGs production, h-CM cells",primary h-CM cells,blocked
same,"Effect on BK-induced total PGs production, h-CM cells",primary h-CM cells; listed as WIN-64338,potent antagonism
C/C=C(/C)C(=O)O[C@H]1C(C)=C2[C@H]([C@@H]1OC(=O)CCCCCCC)[C@@](C)(OC(C)=O)C[C@H](OC(=O)CCC)[C@@]1(O)[C@H]2OC(=O)[C@@]1(C)O [thapsigargin],Reduction of BK-mobilized [Ca^2+]i levels vs control cells,[6]; thapsigargin 0.1 or 30 µM preincubation,> 50%
same,Effect on response to BK after thapsigargin,[6]; thapsigargin pretreatment,blunted but not abolished
same,Effect on BK-induced [Ca^2+]i rise in presence of EGTA,"[6]; thapsigargin, 1 mM EGTA included",concentration-dependently reduced
CNCC(=O)N[C@@H](CCCNC(=N)N)C(=O)N1CCC[C@H]1C(=O)N1CCC[C@H]1C(=O)NCC(=O)N[C@@H](Cc1ccccc1)C(=O)N[C@@H](CO)C(=O)N1CCC[C@H]1C(=O)N[C@H](Cc1ccccc1)C(=O)O [Sar-[D-Phe^9]-Des-Arg^9-BK],EC50,[4],> 1 nM
same,EC50,primary h-CM cells,> 1000 nM
N=C(N)NCCC[C@H](N)C(=O)N1CCC[C@H]1C(=O)N1CCC[C@H]1C(=O)NCC(=O)N[C@@H](Cc1ccccc1)C(=O)N[C@@H](CO)C(=O)N1CCC[C@H]1C(=O)N[C@@H](Cc1ccccc1)C(=O)O [Des-Arg^9-BK],EC50,CHO-B2 cells [7]; one bound printed,> 100 nM
same,EC50,CHO-B2 cells [1],> 100 nM
same,EC50,h-CM cells [2],> 1000 nM
same,EC50,h-CM cells [3],> 1000 nM
same,EC50,[4],> 100 nM
same,EC50,primary h-TM cells,3600 nM
same,EC50,CHO-B2 cells [5],> 100 nM
same,EC50,primary h-CM cells,> 1000 nM
"O=C(O)CN(CCOCCOCCN(CC(=O)O)CC(=O)O)CC(=O)O [EGTA, ethylene glycol tetraacetic acid]",Effect on BK-induced [Ca^2+]i mobilization,"[6]; EGTA 1 mM, 5 min preincubation",complete abolition of the response to BK
same,Effect on BK-induced [Ca^2+]i mobilization,[6]; EGTA 1–2 mM,totally abolished
same,Effect on BK-induced [Ca^2+]i mobilization,"[6]; EGTA 1–2 mM, listed as ethylene glycol tetraacetic acid",abolished
N=C(N)NCCC[C@H](NC(=O)[C@H](Cc1ccccc1)NC(=O)[C@@H]1CCCN1C(=O)[C@H](CO)NC(=O)[C@H](Cc1ccccc1)NC(=O)CNC(=O)[C@@H]1C[C@@H](O)CN1C(=O)[C@@H]1CCCN1C(=O)[C@@H](N)CCCNC(=N)N)C(=O)O [Hyp^3-BK],EC50,CHO-B2 cells [7]; first of two values in cell,0.0304 nM
same,EC50,CHO-B2 cells [7]; second of two values in cell,0.0582 nM
same,EC50,CHO-B2 cells [1],0.0307 ± 0.0185 nM
same,EC50,h-CM cells [2],9.2 ± 5.3 nM
same,EC50,h-CM cells [3],10.1 ± 4.2 nM
same,EC50,[4],0.0683 ± 0.0367 nM
same,EC50,primary h-TM cells,1 nM
same,EC50,CHO-B2 cells [5],0.0593 ± 0.0373 nM
same,EC50,primary h-CM cells,10.9 ± 6.1 nM
same,EC50,"[6]; primary h-CM cells, FLIPR, Calcium Assay Kit dye, pH 7.4, 23 °C dye loading, mean ± SEM, n=3-7, read-out: Agonist potency at stimulating [Ca^2+]i mobilization in primary h-CM cells (EC50)",2.2 ± 0.2 nM
ryanodine,Effect on BK-induced [Ca^2+]i levels,"[6]; ryanodine 1–30 µM, data not shown",did not enhance but instead slightly reduced the effect of BK
